Experimental findings from patent US5453426A, “Sulfur-containing xanthine derivatives as adenosine antagonists” (priority 1994, dated 1995) are described below.

Like-named read-outs stand apart in the source and are kept apart here.

The target in one test is A2 adenosine receptors (Rattus norvegicus, UniProt P30543). Nature of the test: Inhibition of binding of [3H]N-ethylcarboxamidoadenosine to A2-adenosine receptors in rat striatal membranes. Conditions: for A2 affinity/potency, in words: relative to the analogs named in the text.
The target in the next test is T1, A1 adenosine receptors (Rattus norvegicus, UniProt P25099).
T1 construct: A1 adenosine receptors in rat cerebral cortical membranes; from tissue; host or cells: rat cerebral cortex membranes
T1 sequence (P25099 1-326): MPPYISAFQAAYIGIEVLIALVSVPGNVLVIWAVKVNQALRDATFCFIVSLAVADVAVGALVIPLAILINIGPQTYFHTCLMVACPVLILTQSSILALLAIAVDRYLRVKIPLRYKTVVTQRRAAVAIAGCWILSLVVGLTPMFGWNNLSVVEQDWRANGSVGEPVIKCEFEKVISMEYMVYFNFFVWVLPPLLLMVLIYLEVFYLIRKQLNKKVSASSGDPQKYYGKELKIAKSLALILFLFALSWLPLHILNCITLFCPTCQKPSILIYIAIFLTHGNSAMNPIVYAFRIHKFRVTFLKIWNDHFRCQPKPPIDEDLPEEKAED
The test is described as follows: Inhibition of binding of [3H]N6-phenylisopropyladenosine to A1 adenosine receptors in rat cerebral cortical membranes. The conditions noted are these: for Ki (A2)/Ki (A1): ratio of A2 (rat striatum) to A1 (rat cortex) Ki; for A1 affinity/potency, in words: relative to the analogs named in the text.

The mark [1] stands for this setting: rat cortical membranes, [3H]PIA, single determination in triplicate or average of three ± S.E.M., read-out: Ki A1-receptors.
Where [2] appears, read: read-out: Ki A2-receptors, rat striatal membranes, [3H]NECA, single determination in triplicate or average of three ± S.E.M.

Sequence of A2 adenosine receptors (P30543 whole entry): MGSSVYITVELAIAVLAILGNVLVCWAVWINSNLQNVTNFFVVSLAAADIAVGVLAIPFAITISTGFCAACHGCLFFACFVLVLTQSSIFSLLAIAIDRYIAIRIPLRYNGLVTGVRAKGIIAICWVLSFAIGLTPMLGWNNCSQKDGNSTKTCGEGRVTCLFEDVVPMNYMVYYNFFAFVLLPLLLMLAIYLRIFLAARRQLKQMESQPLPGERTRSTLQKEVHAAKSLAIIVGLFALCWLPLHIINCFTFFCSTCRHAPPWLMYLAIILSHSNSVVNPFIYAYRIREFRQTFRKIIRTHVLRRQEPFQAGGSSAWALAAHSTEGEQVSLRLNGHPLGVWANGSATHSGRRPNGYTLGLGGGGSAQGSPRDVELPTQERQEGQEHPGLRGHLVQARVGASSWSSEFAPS
Procedure for A2 adenosine receptors: Affinity at A1 - and A2 -adenosine receptors was measured in competitive binding assays, using as radioligands [^3 H]N^6 -phenylisopropyladenosine^17 (with rat cerebral cortical membranes) and [^3 H]5'-N-ethylcarboxamidoadenosine (with rat striatal membranes),^18 respectively.
N^6 -Cyclopentyladenosine was present at 50 nM to inhibit binding of the ligand at A1 -adenosine receptors. Inhibition of binding by a range of concentrations of xanthines was assessed in triplicate in at least three separate experiments. IC50 -values were converted to Ki-values by the method of Bruns et al,^18 using a conversion factor derived from the affinity of [^3 H]N-ethylcarboxamidoadenosine at A2 receptors and the Cheng-Prusoff equation.^19

By Ki is commonly meant the equilibrium dissociation constant of an inhibitor or competing ligand from its target. Consider `Cn1c(=O)c2[nH]c(C3CCCC3)nc2n(C)c1=S` [Compound 13], for which the Ki on A2 adenosine receptors was 1390 nM; on A1 adenosine receptors (setting [1]) it was 8 nM. The “Ki (A2)/Ki (A1)” value at A1 adenosine receptors is listed as 170.

On to `CCCn1c(=O)c2[nH]c(C3CCCC3)nc2n(CCC)c1=S` [Compound 14], for which, on A2 adenosine receptors, the Ki is 314 ± 62 nM. Further, on A1 adenosine receptors (A1 versus A2 binding, relative to oxygen analogs), the “A1-selectivity, in words” value was “a greater margin of A1 -selectivity”. For the same compound, on A1 adenosine receptors (setting [1]), the Ki is 0.655 ± 0.058 nM. For the same compound, at A1 adenosine receptors, the “Ki (A2)/Ki (A1)” value was 479 and the “A1 affinity/potency, in words” value was “the A1 affinity was enhanced by the thio substitution”.

Regarding `Cn1c(=O)c2[nH]c(-c3cccs3)nc2n(C)c1=O` [Compound 17], the inhibition constant (Ki) was found to be 1630 nM on A2 adenosine receptors and 233 ± 48.6 nM on A1 adenosine receptors (setting [1]). Besides, the “Ki (A2)/Ki (A1)” value on A1 adenosine receptors is listed as 6.97.

`Cn1c(=O)c2[nH]c(-c3ccsc3)nc2n(C)c1=O` [Compound 18]: the Ki came out at 841 ± 109 nM on A2 adenosine receptors and 152 ± 27 nM at A1 adenosine receptors (setting [1]). Also, the “A2 affinity/potency, in words” value on A2 adenosine receptors is recorded as “Preference for 3-thienyl derivatives was evident particularly at the A2 -subtype”. Also, the “Ki (A2)/Ki (A1)” value on A1 adenosine receptors came to 5.53.

Take `CCCn1c(=O)c2[nH]c(-c3cccs3)nc2n(CCC)c1=O` [Compound 19]: the Ki came out at 381 ± 27.7 nM at A2 adenosine receptors and 16.1 ± 1.96 nM at A1 adenosine receptors (setting [1]). Moreover, on A1 adenosine receptors, the “Ki (A2)/Ki (A1)” value was determined as 23.6.

As for `CCCn1c(=O)c2[nH]c(-c3ccsc3)nc2n(CCC)c1=O` [Compound 20], at A2 adenosine receptors, the Ki was found to be 121 ± 18.2 nM and the “A2 affinity/potency, in words” value is given as “Preference for 3-thienyl derivatives was evident particularly at the A2 -subtype”. Besides, the Ki at A1 adenosine receptors (setting [1]) is 10 ± 0.03 nM. At A1 adenosine receptors, the “Ki (A2)/Ki (A1)” value is recorded as 12.1.

Regarding `Cn1c(=O)c2nc(-c3cccs3)[nH]c2n(C)c1=S` [Compound 21], the inhibition constant Ki at A2 adenosine receptors (setting [2]) came to 1740 nM; on A1 adenosine receptors (setting [1]), 221 ± 43.3 nM. On A1 adenosine receptors, the “Ki (A2)/Ki (A1)” value came out at 7.87.

For the compound `CCCn1c(=O)c2[nH]c(-c3ccc(OCC(=O)O)cc3)nc2n(CCC)c1=O` [Compound 27], the results for the Ki at A2 adenosine receptors (setting [2]) and at A1 adenosine receptors (setting [1]) were 2200 nM and 58 ± 3 nM, respectively. Further, the “Ki (A2)/Ki (A1)” value at A1 adenosine receptors was found to be 37.8.

Consider `CCCn1c(=O)c2[nH]c(-c3ccc(OCC(=O)O)cc3)nc2n(CCC)c1=S` [Compound 28, 8-(4-(carboxymethyloxy)phenyl)-1,3-dipropyl-2-thioxanthine], for which the Ki at A2 adenosine receptors stood at 315 ± 60.8 nM; at A1 adenosine receptors (setting [1]), 53.8 ± 7.1 nM. For the same compound, at A2 adenosine receptors (28 versus oxygen analog 27), the “enhancement of potency at A2-receptors by the 2-thio substitution” value is given as 7 fold. Besides, the “Ki (A2)/Ki (A1)” value at A1 adenosine receptors was 5.86.

In the case of `CCCn1c(=O)c2[nH]c(-c3ccc(OCC(=O)OCC)cc3)nc2n(CCC)c1=O` [Compound 29], the inhibitory constant (Ki) on A2 adenosine receptors is over 10000 nM; at A1 adenosine receptors (setting [1]), 42 ± 3 nM. Also, the “Ki (A2)/Ki (A1)” value at A1 adenosine receptors was over 238.

For the compound `CCCn1c(=O)c2[nH]c(-c3ccc(OCC(=O)OCC)cc3)nc2n(CCC)c1=S` [Compound 30], the Ki at A2 adenosine receptors is over 5000 nM; on A1 adenosine receptors (setting [1]), 6.78 ± 0.64 nM. The “Ki (A2)/Ki (A1)” value on A1 adenosine receptors is over 740.

`CCCn1c(=O)c2[nH]c(-c3ccc(OCC(=O)NCCN)cc3)nc2n(CCC)c1=S` [Compound 31]: on A2 adenosine receptors, the Ki was found to be 26.3 ± 1.76 nM and the “A2 affinity/potency, in words” value is “enhanced over the oxygen analog”. Moreover, at A1 adenosine receptors (setting [1]), the inhibition constant Ki stood at 2.69 ± 0.77 nM. Besides, on A1 adenosine receptors, the “Ki (A2)/Ki (A1)” value is 9.8 and the “A1 affinity/potency, in words” value is “with less affinity at A1 -receptors than the corresponding oxygen analog”.

With `CCCn1c(=O)c2[nH]c(-c3ccc(OCC(=O)NCCNC)cc3)nc2n(CCC)c1=S` [Compound 33], the Ki on A1 adenosine receptors (setting [1]) came out at 2.4 ± 0.28 nM.

`CCCn1c(=O)c2[nH]c(-c3ccc(OCC(=O)NCCN(C)C)cc3)nc2n(CCC)c1=O` [Compound 34] had an inhibitory constant (Ki) at A2 adenosine receptors of 5.03 ± 0.54 nM. The “Ki (A2)/Ki (A1)” value on A1 adenosine receptors is on record as 1.8.

For the compound `CCCn1c(=O)c2[nH]c(-c3ccc(OCC(=O)NCCN(C)C)cc3)nc2n(CCC)c1=S` [Compound 35], the Ki was 27.9 ± 7.5 nM at A2 adenosine receptors and 2.55 ± 0.6 nM on A1 adenosine receptors (setting [1]). Further, the “Ki (A2)/Ki (A1)” value at A1 adenosine receptors was 11.

For `CCCn1c(=O)c2[nH]c(-c3ccc(OCC(=O)N(C)CCN(C)C)cc3)nc2n(CCC)c1=S` [Compound 37, (8-[2-Dimethylaminoethyl[N-methylamino[carbonyl[methyl[oxyphenyl]]]]]-2-thio-1,3-dipropylxanthine)], the inhibitory constant (Ki) is 24.5 ± 8.4 nM at A2 adenosine receptors and 2.57 ± 0.67 nM on A1 adenosine receptors (setting [1]).

`CCCn1c(=O)c2[nH]c(-c3ccc(OCC(=O)NCCNC(=O)[C@@H](CCCCNC(=O)OCc4ccccc4)NC(=O)OC(C)(C)C)cc3)nc2n(CCC)c1=S` [Compound 39] showed a Ki on A2 adenosine receptors of 870 nM. Moreover, the “Ki (A2)/Ki (A1)” value at A1 adenosine receptors is 10.

For the compound `CCCn1c(=O)c2[nH]c(-c3ccc(OCC(=O)NCCNC(=O)[C@H](N)CCCCNC(=O)OCc4ccccc4)cc3)nc2n(CCC)c1=O` [Compound 40], the affinity at A2 adenosine receptors, expressed as Ki, was 191 ± 13 nM. The “Ki (A2)/Ki (A1)” value at A1 adenosine receptors came out at 30.

`CCCn1c(=O)c2[nH]c(-c3ccc(OCC(=O)NCCNC(=O)[C@H](N)CCCCNC(=O)OCc4ccccc4)cc3)nc2n(CCC)c1=S` [Compound 41]: the Ki at A2 adenosine receptors was determined as 322 ± 17 nM. In addition, at A1 adenosine receptors, the “Ki (A2)/Ki (A1)” value turned out to be 36.

`CCCn1c(=O)c2[nH]c(-c3ccc(OCC(=O)NCCNC(=O)[C@H](N)CCCCN)cc3)nc2n(CCC)c1=O` [Compound 42]: the inhibition constant Ki at A2 adenosine receptors (setting [2]) stood at 180 nM; at A1 adenosine receptors (setting [1]), 0.87 ± 0.09 nM. Also, the “Ki (A2)/Ki (A1)” value at A1 adenosine receptors is on record as 210.

On to `CCCn1c(=O)c2[nH]c(-c3ccc(OCC(=O)NCCNC(=O)[C@H](N)CCCCN)cc3)nc2n(CCC)c1=S` [Compound 43], for which, on A2 adenosine receptors, the affinity corresponds to a Ki of 46.8 ± 9.4 nM. For the same compound, the “Ki (A2)/Ki (A1)” value at A1 adenosine receptors was found to be 3.6.

Regarding `CCCn1c(=O)c2nc(-c3ccc(OCC(=O)NCCNC(=O)CCCCCCC(=O)ON4C(=O)CCC4=O)cc3)[nH]c2n(CCC)c1=S` [Compound 45, N-Succinimidyl 8-[2-[4-(6-Carboxy-n-hexyl)carbonylaminoethyl[amino[carbonyl[methyloxyphenyl]]]]]-1,3-dipropyl-2-thioxanthine], the Ki at A1 adenosine receptors is 33.5 nM.

For `CCCn1c(=O)c2[nH]c(-c3ccc(OCC(=O)NCCNC(=O)Cc4cccs4)cc3)nc2n(CCC)c1=O` [Compound 46], the Ki on A2 adenosine receptors came to 147 ± 5 nM; on A1 adenosine receptors (setting [1]) it was 18.3 ± 3 nM. Also, the “Ki (A2)/Ki (A1)” value at A1 adenosine receptors was 8.1.

As for `CCCn1c(=O)c2[nH]c(-c3ccc(OCC(=O)NCCNC(=O)Cc4ccc(I)s4)cc3)nc2n(CCC)c1=O` [Compound 48], the Ki is 116 ± 25 nM on A2 adenosine receptors and 11.3 ± 1.5 nM at A1 adenosine receptors (setting [1]). The “Ki (A2)/Ki (A1)” value on A1 adenosine receptors worked out at 10.3.

Take `CCCn1c(=O)c2[nH]c(-c3ccc(OCC(=O)NCCNC(=O)CCCCCCC(=O)NCc4cccs4)cc3)nc2n(CCC)c1=O` [Compound 49]: the Ki on A2 adenosine receptors (setting [2]) worked out at 630 ± 160 nM; at A1 adenosine receptors (setting [1]), 7.44 ± 0.98 nM. Further, the “Ki (A2)/Ki (A1)” value at A1 adenosine receptors came to 85.

As for `Cn1c(=S)c2[nH]c(C3CCCC3)nc2n(C)c1=S` [Compound 52], the inhibitory constant (Ki) on A2 adenosine receptors came to 11500 nM; on A1 adenosine receptors (setting [1]), 40.5 ± 6.6 nM. The “Ki (A2)/Ki (A1)” value on A1 adenosine receptors is on record as 285.

As for `CCCn1c(=S)c2[nH]c(C3CCCC3)nc2n(CCC)c1=S` [Compound 53], on A2 adenosine receptors, the inhibition constant Ki came out at 2780 nM; the “A2 affinity/potency, in words” value is “intermediate in potency between the corresponding 2-thio and 6-thio analogs”. The Ki at A1 adenosine receptors (setting [1]) worked out at 4.87 ± 0.82 nM. Moreover, on A1 adenosine receptors, the “Ki (A2)/Ki (A1)” value was 572; the “A1 affinity/potency, in words” value was “intermediate in potency between the corresponding 2-thio and 6-thio analogs”.

For `Cn1c(=S)c2[nH]c(C3CCCC3)nc2n(C)c1=O` [Compound 54], the values for the Ki on A2 adenosine receptors and on A1 adenosine receptors (setting [1]) were 8980 nM and 202 ± 26 nM, respectively. Also, the “Ki (A2)/Ki (A1)” value at A1 adenosine receptors is recorded as 44.4.
